Experimental findings from publication PMC6689897, “Drugging an undruggable pocket on KRAS” (Proceedings of the National Academy of Sciences of the …, 2019) are described below.

Several values for one entry are separate records, joined by “and”; a condition that tells them apart may be missing. Identical values can stand only once.

One test addresses T1, GTP-KRASG12D::CRAF (Homo sapiens, UniProt P01116, G12D).
T1 construct: KRAS (G12D) 1-169, N-terminal 6His-tag, C-terminal avi-tag was from Xtal; 6His-tag (N); purchased Xtal BioStructures, Inc
The experiment in a line: Alpha Screen PPI assay. Type of test: biochemical. As to conditions: duplicate. As for the experimental part:
(§1) 221 Measurements of various protein–protein interactions were performed using the Alpha
(§2) 222 Screen technology developed by Perkin Elmer. Recombinant RAS proteins (H-, N-, K-
(§3) 223 RAS variants; all KRAS variants are based on KRAS isoform 4B (uniprot id P01116-2);
(§4) 224 KRAS (G12D) 1-169, N-terminal 6His-tag, C-terminal avi-tag was from Xtal
(§5) 225 BioStructures, Inc., KRAS (G12C) 1-169, C-terminal avi-tag, biotinylated, mutations:
(§6) 226 C51S, C80L, C118S, NRAS(wt) 1-172, C-terminal avi-tag, biotinylated; HRAS(wt) 1-
(§7) 227 166, C-terminal avi-tag, biotinylated). Biotinylation was performed in vitro with
(§8) 228 recombinant BirA biotin-protein ligase as recommended by the manufacturer (Avidity
(§9) 229 LLC, Aurora, Colorado, USA). Interacting proteins such as SOS1 (564-1049, N-terminal
(§10) 230 GST-tag, TEV cleavage site), cRaf (1-303, N-terminal GST-tag, TEV cleavage site) and
(§11) 231 PI3KA- RBD (160-317, N-term-HIS_GST-tag) were expressed as glutathione S
(§12) 232 transferase (GST) fusions. Accordingly, the Alpha Screen beads were glutathione coated
(§13) 233 Alpha Lisa acceptor beads (Perkin Elmer AL 109 R) and Alpha Screen Streptavidin
(§14) 234 conjugated donor beads (Perkin Elmer 6760002L). Nucleotides were purchased from
(§15) 236 interaction assays were carried out in PBS, containing 0.1% bovine serum albumin,
(§16) 237 0,05% Tween-20 and 10 µM of the corresponding nucleotide. Assays were carried out in
(§17) 238 white ProxiPlate-384 Plus plates (Perkin Elmer #6008280) in a final volume of 20 µL. In
(§18) 239 brief, biotinylated RAS proteins (10 nM final concentration) and GST-SOS1, GST-PI3K
(§19) 240 or GST-CRAF (10 nM final) were mixed with glutathione acceptor beads (5 µg/mL final
(§20) 241 concentration) in buffer, containing the corresponding nucleotides (GDP or GTP for
(§21) 242 assays containing SOS1, only GTP for interaction assays containing PI3K or CRAF) and
(§22) 243 were incubated for 30 min at room temperature. After addition of streptavidin donor
(§23) 244 beads (5 µg/mL final concentration) under green light, the mixture was further incubated
(§24) 245 for 60 min in the dark at room temperature. Single oxygen induced fluorescence was
(§25) 246 measured at an Enspire multimode plate reader (Perkin Elmer) according to the
(§26) 247 manufacturer’s recommendations. […]

Test [1] deals with T2, GTP-KRASwt::CRAF (Homo sapiens, UniProt P01116).
T2 construct: biotin (attachment tag not described)
T2 sequence (P01116 1-188 isoform P01116-2): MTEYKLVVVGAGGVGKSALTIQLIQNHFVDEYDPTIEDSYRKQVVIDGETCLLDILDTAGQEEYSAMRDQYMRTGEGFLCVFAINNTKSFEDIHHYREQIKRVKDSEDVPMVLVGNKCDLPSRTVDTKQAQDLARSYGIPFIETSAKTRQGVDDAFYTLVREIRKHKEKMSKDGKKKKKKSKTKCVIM
The experiment in a line: Alpha Screen PPI assay. The test is classed as biochemical. As to conditions: Alpha Screen, duplicate. As for the experimental part:
as §1, §2, §3, §4, §5, §6, §7, §8, §9, §10, §11, §12, §13, §14, §15, §16, §17, §18, §19, §20, §21, §22, §23, §24, §25, §26

Test [2] deals with GTP-KRASwt::CRAF. The experiment in a line: Alpha Screen PPI assay. The test is classed as biochemical, human. How it is done:
as §1, §2, §3, §4, §5, §6, §7, §8, §9, §10, §11, §12, §13, §14, §15, §16, §17, §18, §19, §20, §21, §22, §23, §24, §25, §26

For the next test, the target named is T3, GTP-KRASwt::SOS1 (Homo sapiens, UniProt P01116).
T3 construct: biotin (attachment tag not described)
T3 sequence (P01116 1-188 isoform P01116-2): as above
The test is described as follows: Alpha Screen PPI assay. As to conditions: duplicate. Type of test: biochemical. How it is done: as §1, §2, §3, §4, §5, §6, §7, §8, §9, §10, §11, §12, §13, §14, §15, §16, §17, §18, §19, §20, §21, §22, §23, §24, §25, §26

A further test concerns the target T4, GTP-KRASwt::PI3Kα (Homo sapiens, UniProt P01116).
T4 construct: biotin (attachment tag not described)
The experiment in a line: Alpha Screen PPI assay. Type of test: biochemical. As to conditions: duplicate, read-out: IC50 GTP-KRASwt ::PI3K. As for the experimental part:
as §1, §2, §3, §4, §5, §6, §7, §8, §9, §10, §11, §12, §13, §14, §15, §16, §17, §18, §19, §20, §21, §22, §23, §24, §25, §26

The target of the next test is T5, GTP-KRASG12D::PI3Kα (Homo sapiens, UniProt P01116, G12D).
T5 construct: KRAS (G12D) 1-169, N-terminal 6His-tag, C-terminal avi-tag was from Xtal; 6His-tag (N); purchased Xtal BioStructures, Inc
T5 sequence (P01116 1-169 isoform P01116-2 G12D): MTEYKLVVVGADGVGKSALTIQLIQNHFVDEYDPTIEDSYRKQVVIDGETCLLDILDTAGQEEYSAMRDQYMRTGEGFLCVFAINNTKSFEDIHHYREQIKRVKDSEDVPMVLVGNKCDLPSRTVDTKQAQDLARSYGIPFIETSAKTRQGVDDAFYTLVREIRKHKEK
The test is described as follows: Alpha Screen PPI assay. The test is classed as biochemical. As to conditions: duplicate, read-out: IC50 GTP-KRASG12D::PI3K. As for the experimental part:
as §1, §2, §3, §4, §5, §6, §7, §8, §9, §10, §11, §12, §13, §14, §15, §16, §17, §18, §19, §20, §21, §22, §23, §24, §25, §26

Another test has as its target KRAS (Homo sapiens, UniProt P01116, G12D). The test is described as follows: Alpha Screen PPI assays, summary over KRAS interactions (SOS1, CRAF, PI3Kα). As to conditions: interaction not given. Type of test: biochemical.
Description: Using biochemical assays, we investigated whether 1 inhibited 3 of the 4 PPIs important for KRAS cycling (Fig. 5 A, i–iii). Namely, 1) GDP-KRAS interaction with the catalytic site of SOS ([33]), 2) GTP-KRAS interaction with the allosteric site of SOS ([34]), and 3) GTP-KRAS interaction with downstream effectors (CRAF and PI3Kα). We were unable to establish a biochemical assay for the fourth intervention point, namely, 4) GTP-KRAS interaction with its GAPs (Fig. 5 A, iv). As a reference compound for these assays, we used the KRAS^G12C-specific covalent inhibitor ARS-1620 ([35]). Compound 1 inhibited all 3 RAS cycle intervention points (1 to 3) in a dose-dependent manner (Fig. 5 B–E) in the range of 100 to 770 nM (SI Appendix, Table S6).
217 The coordinates and structure factors of the structures have been deposited at the
218 Protein Data Bank with the accession codes PDB Code 6GJ5, 6GJ6, 6GJ7, 6GJ8.
as §1, §2, §3, §4, §5, §6, §7, §8, §9, §10
231 PI3KA- RBD (160-317, N-term-HIS_GST-tag) were expressed as glutathione S […]
as §24, §25
247 manufacturer’s recommendations. Data were analyzed using the GraphPad Prism data […]

T1 sequence (P01116 1-169 isoform P01116-2 G12D): as above
KRAS, sequence (P01116 1-169 G12D): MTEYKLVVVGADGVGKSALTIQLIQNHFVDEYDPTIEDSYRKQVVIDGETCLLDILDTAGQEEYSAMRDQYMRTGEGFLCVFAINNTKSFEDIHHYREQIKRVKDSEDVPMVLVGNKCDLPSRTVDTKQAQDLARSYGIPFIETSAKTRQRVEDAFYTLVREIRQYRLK
T4 sequence (P01116 1-188 isoform P01116-2): as the sequence (P01116 1-188 isoform P01116-2) above

For orientation: IC50 means the concentration at which inhibition is half-maximal. As for `Cn1cnc(Cn2ccc3ccc(CNCc4[nH]c5ccccc5c4[C@H]4NC(=O)c5ccc(O)cc54)cc32)c1` [Compound 1], the IC50 was 770 nM and 180 nM at GTP-KRASG12D::CRAF; 740 nM against GTP-KRASwt::CRAF [1]; 490 nM against GTP-KRASwt::SOS1; 250 nM on GTP-KRASwt::PI3Kα; 500 nM at GTP-KRASG12D::PI3Kα; 450 nM at KRAS. For the same compound, the “selectivity of inhibition biochemically, KRAS^wt versus KRAS^G12C binding to CRAF” value with GTP-KRASwt::CRAF [2] is recorded as 4 fold.
